PMC10272271, “MAM-2201 acute administration impairs motor, sensorimotor, prepulse inhibition, and memory functions in mice: a comparison with its analogue AM-2201” (Psychopharmacology, 2023)

How the values were obtained:
[1] = test system: CD-1 male mice; design: method as in Bilel et al. ([2020]); settings: i.p., value ± SEM, elaborated from earlier data, ref Bilel et al. ([2020]); cited from earlier work
[2] = test system: CD-1 male mice; assay: Visual object response test; type: in vivo, mouse
Method: For the overall study 234 mice were used. In sensorimotor (visual object, visual placing, acoustic, and overall tactile responses) tests for MAM-2201, experiments for each treatment dose (vehicle or 5 different MAM-2201 doses, 0.01, 0.1, 1, 3, and 6 mg/kg) used 8 mice (total mice used: 48) and for MAM-2201 with AM-251 pretreatment, experiments for each dose regimen (vehicle + AM-251 or MAM-2201 + AM-251, 6 mg/kg) used 16 mice. In the analysis of spontaneous locomotion (open field test) for MAM-2201, experiments for each treatment regimen (vehicle or 4 different MAM-2201 doses, 0.01, 0.1, 1, and 6 mg/kg) used 10 mice (total mice used: 50). In the PPI test for MAM-2201, experiments for each treatment (vehicle or 3 different MAM-2201 doses, 0.01, 0.1, and 1 mg/kg) used 10 mice (total mice used: 40), while for MAM-2201 experiments in the Novel Object Recognition (NOR) test for each treatment regimen (vehicle or 3 different MAM-2201 and vehicle or 3 different AM-2201 doses, 0.01, 0.1, and 1 mg/kg) used 10 mice (total mice used: 80). In the present study the effect of MAM-2201 on sensorimotor responses was investigated using a battery of behavioral tests widely used in studies of “safety-pharmacology,” that we routinely adopted in our laboratory, for the preclinical characterization of new molecules in rodents (Ossato et al. [2015]; Vigolo et al. [2015]; Bilel et al. [2020]). The voluntary and involuntary motor responses of the animal to different visual, acoustic, and tactile stimuli were evaluated according to the procedure described in our previous studies (Ossato et al. [2015]; Bilel et al. [2020]). To reduce the number of animals used, mice were evaluated in functional observational tests carried out in a consecutive manner according to the following time scheme: observation of visual object responses (frontal and lateral view), acoustic response, tactile response (vibrissae, corneal and pinnae reflexes), and visual placing response. Sensorimotor tests were measured at 10, 30, 60, 120, 180, 240, and 300 min after injections for the evaluation of the visual object, acoustic and the tactile response, and at 15, 45, 75, 135, 195, 255, and 315 min after injections for the evaluation of visual placing response. Behavioral tests were conducted in a thermostated (temperature: 20–22 °C, humidity: 45–55%) and light (150 lx) controlled room with a background noise of 40 ± 4 dB. The apparatus for the visual object, acoustic and tactile sensorimotor tests consisted of an experimental chamber (350 × 350 × 350 mm) with black methacrylate walls and a transparent front door. During the week before the experiment, each mouse was placed in the box and handled (once a day) on every other day, i.e., 3 times, to get used to both the environment and the experimenter. To avoid olfactory cues, cages were carefully cleaned with a dilute (5%) ethanol solution and rinsed with water. All experiments were performed between 8:30 AM and 2:00 PM and conducted by trained observers working in pairs who were blinded to the treatment being tested (Ossato et al. [2015]). The behavior of mice was videotaped by a camera (B/W USB Camera day & night with varifocal lens; Ugo Basile, Italy) placed at the top or on one side of the box and analyzed off-line by a different trained operator. Spontaneous locomotion studies were conducted in a separate set of animals through ANYMAZE test. Sensory gating was evaluated by analysis of the pre-pulse inhibition (PPI) of the acoustic startle reflex as previously described (Bilel et al. [2020]).
Visual object response test was used to evaluate the ability of the mouse to see an object approaching from the front (frontal view) or the side (lateral view) that typically induces the animal to shift or turn the head, bring the forelimbs in the position of “defense” or retreat from it. For the frontal visual response, a white horizontal bar was moved frontally to the mouse head and the maneuver was repeated 3 times. […]

SMILES | ED50 (mg/kg), Startle reflex [1] [mg/kg] | effect on visual object response ([2]; 0.01 mg/kg i.p., at 30 min after injection) | effect on visual object response ([2]; 0.1 mg/kg i.p.) | effect on visual object response ([2]; 1 mg/kg i.p., at 30 min) | effect on visual object response ([2]; 3 and 6 mg/kg i.p., until end of test (5 h)) | ED50 ([2]; Mus musculus, ip, mice, value ± SEM, dose for 50% of overall mean effect) [mg/kg]
O=C(c1cccc2ccccc12)c1cn(CCCCCF)c2ccccc12 [AM-2201, 1-[(5-Fluoropentyl)-1H-indol-3-yl](1-naphthylenyl) methanone] | 1.291 ± 0.010 |  |  |  |  | 
Cc1ccc(C(=O)c2cn(CCCCCF)c3ccccc23)c2ccccc12 [MAM-2201, 1-[(5-fluoropentyl)-1H-indol-3-yl](4-methyl-1-naphthalenyl) methanone] |  | transiently reduced | long-lasting inhibition | total inhibition | deep and prolonged impairment | 1.14 ± 0.089
